Patent US20200239957A1, “PREDICTION AND TREATMENT OF HEART FAILURE” (The Regents of the University of Colorado, a body corporate, priority 2013, published 2020)
One block for each compound: values may come before it.

Key:
β-ARs = conditions: heart failure patients, continuous intravenous treatment; cited from earlier work
[1] = heart failure patients, continuous intravenous treatment, cited from earlier work
rtPDE3A = rtPDE3A (Homo sapiens, UniProt Q14432); assay: PDE3 activity assay, cAMP hydrolysis with and without cilostazol; assay type: biochemical; conditions: 0.1 μmol/L cilostazol; read-out: inhibition of rtPDE3A, submaximal (printed as IC44)
Description: cAMP-hydrolytic activity was quantified according to the method of Kincaid and Manganiello (1988) as described in detail previously (Movesian et al., 1991). Briefly, microsomal fractions were added to a reaction mixture containing 0.3 mol/L NaHEPES, 0.6 mmol/L EGTA, […] MgCl2 (pH 7.5) and 0.1 μmol/L [^3H]cAMP (Perkin Elmer, Boston, Mass.). cAMP hydrolysis occurred for 10 minutes at 30° C., then the reaction was stopped by the addition of 10.1 mmol/L unlabeled cAMP and […] unlabeled 5′AMP in 0.25 mol/L HCl. The reaction mixture was neutralized with NaOH. [^3H]5′AMP was converted to [^3H]adenosine by incubation with Crotalus atrox venom (30 mg/ml) for 30 minutes at 30° C. The reaction mixture was then applied to QAE-Sephadex columns, and [^3H]adenosine was eluted with water. Cyclic AMP hydrolysis in pmol/min/mg was determined by measuring [^3H]adenosine in the eluent. PDE activity was measured in the presence and absence of 0.1 μmol/L cilostazol, a concentration that inhibits rtPDE3A submaximally (IC44); PDE3 activity was calculated by dividing the difference in activity in the presence and absence of cilostazol by the fractional inhibition of PDE3 activity at this concentration.

PDE3A promoter = PDE3A promoter (INS/DEL) luciferase reporter in transfected NRVMs; assay type: cell-based, rat; conditions: for luciferase activity of the DEL promoter construct: DEL construct containing the CRE; for luciferase activity of the DEL promoter construct / up-regulation of PDE3A expression, INS construct (luciferase): 1 μmol/L dibutyryl cAMP or 5 μmol/L enoximone for 48 hours
Description: Neonatal rat ventricular myocytes (NRVMs) were prepared from the hearts of 2-day-old rat pups by enzymatic digestion as described (Simpson et al., 1982; Waspe et al., 1990; Singh et al., 2000).
Cloning of the PDE3A promoter region was performed using PCR primers that amplified the −1434/+440 region of the human promoter that contains the INS/DEL genotype. The resulting fragment was cloned in the Promega pGL3-basic vector using MluI and BglII sites as previously described (Sucharov et al., 2003). Cloning of the construct that lacks the cAMP response element (CRE) was done by amplifying the −1066/+440 region of the PDE3A promoter downstream from the CRE site.
Firefly luciferase plasmid DNA was transfected using the Lonza system as previously described (Sucharov et al., 2008). […] Luciferase activity was determined as previously described (Sucharov et al., 2003).

Chain of rtPDE3A (Q14432 whole entry): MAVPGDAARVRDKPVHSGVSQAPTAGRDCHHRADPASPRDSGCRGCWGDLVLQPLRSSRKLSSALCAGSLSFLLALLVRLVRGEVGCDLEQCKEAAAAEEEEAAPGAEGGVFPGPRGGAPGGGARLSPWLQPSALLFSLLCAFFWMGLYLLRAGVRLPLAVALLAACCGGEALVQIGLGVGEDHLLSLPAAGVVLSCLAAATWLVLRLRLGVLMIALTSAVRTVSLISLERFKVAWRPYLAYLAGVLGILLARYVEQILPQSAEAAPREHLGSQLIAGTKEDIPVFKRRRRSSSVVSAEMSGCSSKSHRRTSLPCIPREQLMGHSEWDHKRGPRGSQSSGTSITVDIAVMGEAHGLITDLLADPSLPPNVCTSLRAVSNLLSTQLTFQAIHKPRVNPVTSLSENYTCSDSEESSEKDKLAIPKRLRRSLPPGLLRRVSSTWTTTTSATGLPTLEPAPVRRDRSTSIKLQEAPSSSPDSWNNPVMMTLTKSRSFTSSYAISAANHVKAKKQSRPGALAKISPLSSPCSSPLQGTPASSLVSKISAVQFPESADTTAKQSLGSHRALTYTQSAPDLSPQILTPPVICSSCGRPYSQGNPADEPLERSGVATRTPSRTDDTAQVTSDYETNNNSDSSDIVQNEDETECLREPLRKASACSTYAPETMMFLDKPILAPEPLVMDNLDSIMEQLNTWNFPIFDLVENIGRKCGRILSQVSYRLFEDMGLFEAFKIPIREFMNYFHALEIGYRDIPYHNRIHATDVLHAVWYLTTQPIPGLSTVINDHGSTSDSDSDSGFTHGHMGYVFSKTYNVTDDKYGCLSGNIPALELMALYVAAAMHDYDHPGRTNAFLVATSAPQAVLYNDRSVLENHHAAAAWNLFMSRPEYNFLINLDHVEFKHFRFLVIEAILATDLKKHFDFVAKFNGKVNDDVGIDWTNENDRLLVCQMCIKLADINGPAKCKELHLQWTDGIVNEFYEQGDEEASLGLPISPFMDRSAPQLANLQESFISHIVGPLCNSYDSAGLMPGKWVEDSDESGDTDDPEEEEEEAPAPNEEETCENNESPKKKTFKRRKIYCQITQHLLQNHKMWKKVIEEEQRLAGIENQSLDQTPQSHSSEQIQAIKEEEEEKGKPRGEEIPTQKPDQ

Compound: Nc1cc(-c2ccncc2)c[nH]c1=O [amrinone]
β-ARs in lymphocytes of treated patients (β-ARs): Down-regulation and desensitization | cardiac output at 24 hours ([1]; 24 hours): increase | cardiac output by 72 hours ([1]; 72 hours): return to baseline values

inhibition at 0.1 µM (rtPDE3A): 44%
Compound: O=C1CCc2cc(OCCCCc3nnnn3C3CCCCC3)ccc2N1 [cilostazol]

luciferase activity of the DEL promoter construct (PDE3A promoter): increased luciferase activity | cAMP-induced increase in promoter activity, DEL construct with CRE sequence deleted (PDE3A promoter; DEL construct lacking the CRE (-1066/+440), 48 hours): prevented | up-regulation of PDE3A expression, INS construct (luciferase) (PDE3A promoter): no evidence of up-regulation
Compound: CCCC(=O)Nc1ncnc2c1ncn2[C@@H]1O[C@@H]2COP(=O)(O)O[C@H]2[C@H]1OC(=O)CCC [dibutyryl cAMP]

luciferase activity of the DEL promoter construct (PDE3A promoter): increased luciferase activity | up-regulation of PDE3A expression, INS construct (luciferase) (PDE3A promoter): no evidence of up-regulation
Compound: CSc1ccc(C(=O)c2[nH]c(=O)[nH]c2C)cc1 [enoximone]
